From ChEMBL document CHEMBL1146977, “Taxoid from the needles of the Himalayan yew Taxus wallichiana with cytotoxic and immunomodulatory activities” (Bioorg Med Chem Lett, 2006) come the findings set out here.

≈ marks a conversion by molar mass, not a printed value.

What all share (assay type): functional, cell-based
In test [1] the test system is MCF7. In words: Cytotoxicity against human MCF7 cells by MTT assay. (In general: Tetrazolium dyes change colour on reduction, which living cells bring about.)
In test [2] the test system is MCF7. In words: Cytotoxicity against human MCF7 cells by clonogenic assay.
For test [3], the system named is WRL68. In words: Cytotoxicity against human WRL68 cells by MTT assay.
Test [4] deals with WRL68. In words: Cytotoxicity against human WRL68 cells by clonogenic assay.
The test system of test [5] is KB. In words: Cytotoxicity against human KB cells by MTT assay.
Test [6] relates to KB. In words: Cytotoxicity against human KB cells by clonogenic assay.
The test system of test [7] is PA-1. Put plainly: Cytotoxicity against human PA1 cells by MTT assay.
Test [8] concerns PA-1. In words: Cytotoxicity against human PA1 cells by clonogenic assay.
Test [9] relates to COLO 320DM. Put plainly: Cytotoxicity against human Colo320DM cells by MTT assay.
The test system of test [10] is COLO 320DM. In words: Cytotoxicity against human Colo320DM cells by clonogenic assay.

As usually defined, the IC50 is the concentration needed to halve the response being measured. Higher therefore signals lower potency. With `C=C1[C@H]2C[C@]3(O)C[C@H](OC(C)=O)C(C)=C([C@@H](OC(C)=O)[C@H](OC(C)=O)[C@]2(C)[C@@H](OC(C)=O)C[C@@H]1O)C3(C)C`, the half-inhibitory concentration (IC50) with MCF7 [1] is 0.18 µg/mL (≈ 0.335 µM); in the test with MCF7 [2], 8.42 µg/mL (≈ 15.7 µM); in the test with WRL68 [3] it was 1.65 µg/mL (≈ 3.07 µM); with WRL68 [4] it was 12.8 µg/mL (≈ 23.9 µM); in the test on KB [5], 0.04 µg/mL (≈ 0.0745 µM); in the test with KB [6] it was 1.23 µg/mL (≈ 2.29 µM). For the same compound, the IC50 in the test on PA-1 [7] was found to be 0.01 µg/mL (≈ 0.0186 µM); in the test on PA-1 [8], 0.85 µg/mL (≈ 1.58 µM); with COLO 320DM [9], 0.23 µg/mL (≈ 0.429 µM); in the test with COLO 320DM [10], 1.82 µg/mL (≈ 3.39 µM).

On to `CC[C@]1(O)C[C@@H]2CN(CCc3c([nH]c4ccccc34)[C@@](C(=O)OC)(c3cc4c(cc3OC)N(C)[C@H]3[C@@](O)(C(=O)OC)[C@H](OC(C)=O)[C@]5(CC)C=CCN6CC[C@]43[C@@H]65)C2)C1` [VINBLASTINE], for which the half-inhibitory concentration (IC50) in the test with MCF7 [1] was determined as 0.02 µg/mL (≈ 0.0247 µM); in the test with MCF7 [2], 0.22 µg/mL (≈ 0.271 µM); in the test with WRL68 [3] it was 1.45 µg/mL (≈ 1.79 µM); with WRL68 [4], 2.6 µg/mL (≈ 3.21 µM); with KB [5] it was 0.046 µg/mL (≈ 0.0567 µM); with KB [6], 0.46 µg/mL (≈ 0.567 µM). In addition, the half-inhibitory concentration (IC50) stood at 0.025 µg/mL (≈ 0.0308 µM) in the test with PA-1 [7], 1.15 µg/mL (≈ 1.42 µM) with PA-1 [8], 0.52 µg/mL (≈ 0.641 µM) in the test with COLO 320DM [9] and 1.6 µg/mL (≈ 1.97 µM) in the test on COLO 320DM [10].

On to `CC[C@]1(O)C[C@H]2CN(CCc3c([nH]c4ccccc34)[C@@](C(=O)OC)(c3cc4c(cc3OC)N(C=O)[C@H]3[C@@](O)(C(=O)OC)[C@H](OC(C)=O)[C@]5(CC)C=CCN6CC[C@]43[C@@H]65)C2)C1` [VINCRISTINE], for which the 50% inhibitory concentration (IC50) was found to be 0.05 µg/mL (≈ 0.0606 µM) in the test on MCF7 [1]; 0.15 µg/mL (≈ 0.182 µM) in the test on MCF7 [2]; 1.42 µg/mL (≈ 1.72 µM) in the test with WRL68 [3]; 8.5 µg/mL (≈ 10.3 µM) with WRL68 [4]; 0.02 µg/mL (≈ 0.0242 µM) in the test on KB [5]; 0.25 µg/mL (≈ 0.303 µM) with KB [6]. For the same compound, the half-maximal inhibitory concentration (IC50) is 0.01 µg/mL (≈ 0.0121 µM) with PA-1 [7], 1 µg/mL (≈ 1.21 µM) in the test on PA-1 [8], 0.46 µg/mL (≈ 0.558 µM) in the test on COLO 320DM [9] and 1.5 µg/mL (≈ 1.82 µM) in the test on COLO 320DM [10].
